{"source": "patent US8007994B2", "about": "“Compositions and methods of modulating cholesterol metabolism” (The Board of Regents of the University of Texas System, priority 1998, dated 2011)", "key": {"[1]": {"tested_on": "liver cholesterol", "assay": "Liver cholesterol accumulation in cholesterol-fed LXRα wild-type and knockout mice", "assay_type": "in vivo, mouse", "settings": "0.2% cholesterol diet, 30 mg/kg body weight in diet, 10 days", "experimental": "Male, A129 strain mice (LXRα+/+ and −/−) were fed Teklad 7001 powdered diet supplemented with 0.2% cholesterol 0.015% LG268 (provides 30 mg/kg body weight), vehicle, or 2% surfomer (a surfactant polymer that inhibits cholesterol absorption, Turley et al., 1991) ad libitum for 10 days. Animals were sacrificed and a liver aliquot was saponified and extracted and the cholesterol content was determined by gas chromatography using stigmastanol as an internal standard (Turley et al., 1994). Liver cholesterol accumulation was prevented by ingestion of LG268 in both LXRα knockout and wild-type mice. The two most likely mechanisms for this effect are (1) increased cholesterol output by enhanced bile acid production and secretion and/or (2) decreased cholesterol input by diminished cholesterol absorption.\nMale, A129 strain mice were fed Teklad 7001 powdered diet supplemented with 0.2% cholesterol and various levels of LG268 (providing 1.4 to 30 mg/kg body weight) or vehicle ad libitum for 10 days. […] Liver cholesterol concentration was determined as by gas chromatography.\nMale, A129 strain mice were fed Teklad 7001 powdered diet supplemented with 0.2% cholesterol LG268 or LG721 (to provide 3 mg/kg body weight) ad libitum for 10 days. […] Liver cholesterol concentration was determined as by gas chromatography."}, "[2]": {"tested_on": "bile acid production", "assay": "Bile acid pool size and fecal bile acid excretion in cholesterol-fed mice", "assay_type": "in vivo, mouse", "settings": "LXRα +/+ and −/− mice, 2% cholesterol diet, 30 mg/kg oral gavage daily, 7 days", "experimental": "Female, mixed strain (LXRα+/+ and −/−) mice were fed Teklad 7001 2% cholesterol (w/w) diet ad libitum for 7 days. Each day mice received a single bolus dose of LG268 ([…] to provide 30 mg/kg body weight) or vehicle by oral gavage. Mice were killed and liver cholesterol was determined as described in FIG. 1. Small intestine (with luminal contents) and gall bladder were extracted together to determine bile acid pool size and composition as described by Schwartz et al., 1998. Stools were collected over 3 days from the individually housed mice, dried, weighed and ground. Fecal bile acid content was determined by an enzymatic method (Turley et al., 1996)."}, "[3]": {"tested_on": "cholesterol absorption", "assay": "Cholesterol absorption by the fecal isotope ratio method in mice", "assay_type": "in vivo, mouse", "experimental": "Male, A129 strain mice (LXRα+/+ and −/−) were fed Teklad 7001 powdered diet supplemented with 0.2% cholesterol 0.015% LG268 (provides 30 mg/kg body weight), vehicle, or 2% surfomer ad libitum for 10 days. On day 7, mice received a gavage dose of [22,23-3H]b-sitostanol (American Radiolabeled Chemicals, St. Louis, Mo.) and [4-14C]cholesterol (Amersham) for the measurement of cholesterol absorption by the fecal isotope ratio method (Turley et al., 1994). […] In light of the extreme potency of LG268, a dose-response analysis was performed.\n(§1) Male, A129 strain mice were fed Teklad 7001 powdered diet supplemented with 0.2% cholesterol and various levels of LG268 (providing 1.4 to 30 mg/kg body weight) or vehicle ad libitum for 10 days. On day 7, mice received a gavage dose of [22,23-3H]b-sitostanol (American Radiolabeled Chemicals, St. Louis, Mo.) and [4-14C]cholesterol (Amersham) for the measurement of cholesterol absorption by the fecal isotope ratio method (Turley et al., 1994). Liver cholesterol concentration was determined as by gas chromatography.\nas §1, with “cholesterol” for “cholesterol and various levels of”, “or LG721 (to provide 3” for “(providing 1.4 to 30”, “weight)” for “weight) or vehicle”"}, "[4]": {"tested_on": "total lipid absorption", "assay": "Total lipid absorption determined gravimetrically in mice", "assay_type": "in vivo, mouse", "experimental": "Total lipid absorption was determined in the study described above (FIG. 4) to establish whether LG268 effects were specific to cholesterol or were affecting lipid absorption or intestinal integrity. Total lipid absorption was determined gravimetrically (Schwartz et al., 1998) by establishing lipid intake (amount of food consumed over 72 hours×dietary lipid content) and lipid output (fecal lipid content×quantity of stool collected over the same 72 hours) to calculate the fraction of lipid consumed that was absorbed. […] The gravimetric determination of lipid absorption shown in FIG. 5 confirmed these findings. The reduction in lipid absorption seen in these animals can be accounted for by the reduction in cholesterol uptake (cholesterol comprises ˜5% of the lipid in these diets and is extracted and measured as lipid in these analyses). Therefore, the effects of LG268 are specific for cholesterol absorption."}, "[5]": {"tested_on": "cholesterol biosynthesis", "assay": "Rates of sterol synthesis in vivo ([3H]water incorporation)", "parameters": "species or system mouse", "settings": "mice, 0.2% cholesterol diet, 7 days", "experimental": "Male, A129 mice were fed Teklad 7001 diet supplemented with 0.2% cholesterol and vehicle or LG268 (at 3 or 30 mg/kg body weight) for 7 days ad libitum. Rates of sterol synthesis were measured in vivo as described (Jeske and Dietschy, 1980, Turley et al., 1981) based on the incorporation of [^3H]water into digitonin-precipitable sterols over one hour."}, "[6]": {"tested_on": "liver cholesterol", "assay": "Liver cholesterol in cholesterol-fed Golden Syrian hamsters", "assay_type": "in vivo, Golden Syrian hamster", "settings": "male hamsters, 0.2% cholesterol diet, 3 or 30 mg/kg body weight, 12 days", "experimental": "(§2) Hamsters provide a better animal model for cholesterol metabolism than mice (however, mice offer the advantage that they can be genetically manipulated, for example the LXRα−/− strain). […] Male Syrian Golden hamsters were fed Teklad 7001 diet supplemented with 0.2% cholesterol and vehicle, LG268 (providing 3 or 30 mg/kg body weight) or 2% surfomer. On day 7, they received a gavage dose of [22,23-3H]b-sitostanol (American Radiolabeled Chemicals, St. Louis, Mo.) and [4-14C]cholesterol (Amersham) for the measurement of cholesterol absorption by the fecal isotope ratio method (Turley et al., 1994). Stools were collected from the individually housed hamsters over the next 72 hours. On day 12 the animals were sacrificed and liver was removed for cholesterol determination by gas chromatography (Turley et al., 1994). […] Therefore the effects of LG268 on cholesterol homeostasis are not limited to mice, but observed in other mammalian species as well."}, "[7]": {"tested_on": "cholesterol absorption", "assay": "Cholesterol absorption by the fecal isotope ratio method in hamsters", "assay_type": "in vivo, Golden Syrian hamster", "settings": "male hamsters, 0.2% cholesterol diet, 3 or 30 mg/kg body weight", "experimental": "as §2"}, "[8]": {"tested_on": "ACAT-1 mRNA", "assay": "Northern analysis of duodenal intestine samples, ACAT-1", "assay_type": "in vivo, mouse", "settings": "duodenum of treated mice, 10 days", "from_the_text": "(§3) It is known that exogenous cholesterol is taken up in the distal duodenum (and perhaps proximal jejunum) by the intestinal enterocyte, is rapidly esterified (by ACAT) and packaged into chylomicrons for transport into the lymphatic system (reviewed by Homan and Krause, 1997). Recently, caveolin has also been proposed to play a role in cholesterol trafficking in the intestine (Field et al., 1998). Disruption of any of these processes could result in diminished cholesterol absorption capacity. As LG268 is an agonist of the nuclear hormone receptor RXR, it is likely that the primary targets of this drug would be transcriptionally regulated and show a change in the steady state level of mRNA for critical target genes. Northern analyses were performed on duodenal intestine samples obtained in the experiment described in FIG. 4. Results were quantitated using a phosphoimager (Molecular Dynamics), standardized against b-actin controls, and mathematically adjusted to yield 1 unit for the vehicle-treated control group."}, "[9]": {"tested_on": "ACAT-2 mRNA", "assay": "Northern analysis of duodenal intestine samples, ACAT-2", "assay_type": "in vivo, mouse", "settings": "duodenum of treated mice, 10 days", "from_the_text": "as §3"}, "[10]": {"tested_on": "caveolin mRNA", "assay": "Northern analysis of duodenal intestine samples, caveolin", "assay_type": "in vivo, mouse", "settings": "duodenum of treated mice, 10 days", "from_the_text": "as §3"}, "[11]": {"tested_on": "ATP-binding cassette protein-1 (ABC-1)", "assay": "Northern analysis of intestinal ABC-1 expression", "assay_type": "in vivo", "settings": "mouse small intestine, oral 30 mg/kg body weight, as little as 6 hours", "experimental": "The ATP-binding cassette protein-1 is a newly described membrane protein implicated in reverse cholesterol transport, in other words the efflux of cholesterol from peripheral tissues to the liver (Young and Fielding, 1999; Tall, 1998).\nMale A129 strain mice were fed Teklad 7001 powdered diet supplemented with 0.2% cholesterol and 0.015% LG268, equimolar LG721 (see example 12) or vehicle at 7 pm (beginning of dark cycle). Animals were sacrificed at 1 am (6 hour time point) or 7 am (12 hr), the intestine was removed and rinsed with ice-cold phosphate buffered saline, then subdivided into 5 segments of equal length (˜8 cm each, FIG. 10A) or 3 segments (the proximal segment representing the duodenumis depicted in FIG. 10B). Intestinal mucosa was obtained from each segment and poly (A+) RNA isolated for northern analyses. Results were quantified using a phosphorimager, standardized against b-actin controls, and mathematically adjusted to yield 1 unit for the vehicle-treated control group."}, "[12]": {"tested_on": "RXR", "settings": "cited from earlier work"}}, "note": "“Also recorded” adds a separate entry of the source. Where two headings read alike, the source gives them in different places.", "data": [{"compound": "Cc1cc2c(cc1C1(c3ccc(C(=O)O)cn3)CC1)C(C)(C)CCC2(C)C", "note": "[LG268]", "values": [{"measurement": "liver cholesterol accumulation", "setting": "[1]", "value": "prevented"}, {"measurement": "liver cholesterol accumulation prevented via bile acid production (bile acid pool size and excretion)", "setting": "[2]", "value": "did not prevent the liver accumulation by increasing bile acid production"}, {"measurement": "cholesterol absorption", "setting": "[3]; LXRα +/+ and −/− mice, 0.2% cholesterol diet, 30 mg/kg body weight, 10 days, 30 mg/kg", "value": "completely inhibited; also recorded: total block in cholesterol absorption"}, {"measurement": "inhibition of cholesterol absorption compared with 2% surfomer", "setting": "[3]; mice, LG268 0.015% of diet, dose 130-fold lower than surfomer", "value": "more effective than surfomer"}, {"measurement": "lowest effective dose preventing liver cholesterol accumulation by inhibiting cholesterol absorption", "setting": "[3]; wild-type mice, 0.2% cholesterol diet, doses 1.4 to 30 mg/kg, 10 days", "value": 1.4, "unit": "mg/kg body weight"}, {"measurement": "stool output", "setting": "[4]; wild-type mice receiving LG268 in diet", "value": "normal"}, {"measurement": "general lipid absorption", "setting": "[4]; wild-type mice, 0.2% cholesterol diet, LG268 in diet, 10 days", "value": "not experiencing general lipid malabsorption or steattorhea; also recorded: unaffected"}, {"measurement": "cholesterol biosynthesis", "setting": "[5]; 3 or 30 mg/kg body weight", "value": "increased cholesterol biosynthesis"}, {"measurement": "sterol synthesis in spleen, kidney and carcass", "setting": "[5]; 3 or 30 mg/kg, dose-dependent", "value": "Increased synthesis"}, {"measurement": "liver cholesterol", "setting": "[6]", "value": "effective in hamsters in reducing liver cholesterol"}, {"measurement": "cholesterol absorption", "setting": "[7]", "value": "inhibiting cholesterol absorption"}, {"measurement": "ACAT-1 mRNA level", "setting": "[8]", "value": "No apparent change"}, {"measurement": "ACAT-2 mRNA level", "setting": "[9]", "value": "No apparent change"}, {"measurement": "caveolin mRNA level", "setting": "[10]", "value": "No apparent change"}, {"measurement": "ABC-1 expression", "setting": "[11]", "value": "greatly increased"}, {"measurement": "RXR binding and activation", "setting": "[12]", "value": "binds and activates RXR"}, {"measurement": "RXR binding and activation", "setting": "[12]; listed as LG100268", "value": "binds and activates all RXR subtypes"}, {"measurement": "binding to other related nuclear receptors", "setting": "[12]; selectivity", "value": "fails to exhibit binding"}]}]}
